Among the data in patent publication US4782042A, “Antibiotic A 40926 mannosyl aglycon” (Gruppo Lepetit S.p.A., priority 1985, dated 1988) are M.I.C. and ED50 values, retold here.

Some results are limits rather than exact numbers.

One assay relates to Staph. aureus Tour. As to the kind of experiment: MIC, broth dilution (Isosensitest broth, 24 h). It is filed as cell-based.
Assay [1] relates to Staph. epidermidis ATCC 12228. Nature of the assay: MIC, broth dilution (Isosensitest broth, 24 h). It is filed as cell-based.
A further assay has as its system Strep. pyogenes C203. Nature of the assay: MIC, broth dilution (Todd-Hewitt broth, 24 h). It is filed as cell-based. (In general: Broth dilution looks for growth in wells or tubes with falling amounts of substance.)
Another assay deals with Strep. pneumoniae UC41. As to the kind of experiment: MIC, broth dilution (Todd-Hewitt broth, 24 h). It is filed as cell-based.
Assay [2] concerns Strep. faecalis ATCC 7080. Nature of the assay: MIC, broth dilution (Isosensitest broth, 24 h). It is filed as cell-based.
In assay [3] the test system is Strept. mitis clin. isolate. As to the kind of experiment: MIC, broth dilution (Todd-Hewitt broth, 24 h). It is filed as cell-based.
For assay [4], the system named is Clostridium perfringens ISS30543. It is filed as cell-based. The following applies: anaerobic.
Assay [5] has as its system Clostridium difficile ATCC 9689. As to the kind of experiment: MIC, agar dilution (Wilkins-Chalgren agar, 48 h, anaerobic). It is filed as cell-based.
Assay [6] relates to Bacteroides fragilis ATCC 23745. The assay is described as above. It is filed as cell-based.
The test system of assay [7] is Propionibacterium acnes ATCC 6919. The assay is described as above. It is filed as cell-based.
Assay [8] has as its system Neisseria gonorrhoeae ISM68/126. Nature of the assay: MIC, broth dilution (GC base broth + 1% Isovitalex, 48 h, CO2-enriched). It is filed as cell-based.
The subject of assay [9] is Haemophilus influenzae type b ATCC 19418. As to the kind of experiment: MIC, agar dilution (GB base agar + 1% Isovitalex + 0.001% hemin, 24 h). It is filed as cell-based. On the technique in general: In agar dilution the substance is mixed into plates at graded concentrations.
The subject of assay [10] is Escherichia coli SKF 12140. As to the kind of experiment: MIC, broth dilution (Isosensitest broth, 24 h). It is filed as cell-based.
Assay [11] deals with Mycoplasma gallisepticum S6 Weybridge. As to the kind of experiment: MIC, broth dilution (PPLO broth + 10% horse serum + 1% glucose, 48 h). It is filed as cell-based.
A further assay deals with S. pyogenes C 203. As to the kind of experiment: Experimental septicemia in mice, ED50. It is filed as in vivo. Particulars: mice infected intraperitoneally with S. pyogenes C 203; treated subcutaneously about 30 min after infection; survival, calculated on the 10th day (Spearman and Karber). As to the method:
The antimicrobial activity of the compound of the invention is confirmed also in in vivo experiments conducted essentially as described by R. Pallanza et al., J. Antimicrob. Chemother. 11, 419 (1983). The experimental infection was induced in mice by intraperitoneally administering a suspension of S. pyogenes C 203. Inocula had been adjusted so that the untreated animals died of septicemia within 48 h. Animals were treated subcutaneously with the test compound about 30 min after infection. The ED50 value was calculated on the 10th day by the method of Spearman and Karber (D. J. Finney "Statistical Methods in Biological Assay", Griffin, page 524, 1952) on the basis of the percentage of survival at each dose.

What is called ED50 is the dose that gives a 50% effect, or the effect in half of the subjects. Take antibiotic A 40926 mannosyl aglycon: the M.I.C. in the assay on Staph. aureus Tour (Staph. aureus Tour (L165), 10^6 cfu/ml) was found to be 1 µg/mL; with Staph. aureus Tour (Staph. aureus Tour, 30% bovine serum), 2 µg/mL; with Staph. aureus Tour (Staph. aureus Tour, inoculum about 10^4-10^5 cfu/ml), 0.25 µg/mL; in [1] it was 0.5 µg/mL; in the assay on Strep. pyogenes C203 it was 1 µg/mL; in the assay on Strep. pneumoniae UC41 it was 1 µg/mL. For the same substance, the M.I.C. in assay [2] worked out at 1 µg/mL; in [3], 1 µg/mL; in [4], 0.13 µg/mL; in assay [5] it was 2 µg/mL; in [6], 64 µg/mL; in assay [7], 1 µg/mL. The M.I.C. was 32 µg/mL in [8], 64 µg/mL in assay [9], over 128 µg/mL in assay [10] and over 128 µg/mL in assay [11]. Moreover, in the assay with S. pyogenes C 203, the median effective dose (ED50) is listed as 3.8 mg/kg.
